Values of other authors, collected in article PMC5063900, “A phase 1 study of the safety, tolerability, pharmacokinetics, and pharmacodynamics of TAK-063, a selective PDE10A inhibitor” (Psychopharmacology, 2016).

Conditions: stated in discussion without method or reference; cited from earlier work

In the case of `COc1cn(-c2ccc(-n3cccn3)cc2F)nc(-c2ccnn2-c2ccccc2)c1=O` [TAK-063], the Aqueous solubility is listed as “low”.
